Where two headings read alike, the source gives them in different places.
Columns and labels:
[1] = test system: caterpillars of the armyworm (Spodoptera frugiperda); experiment: Spodoptera frugiperda test (SPODFR spray treatment); assay type: in vivo; settings: 168 h, 100 g/ha, after 7 days, read-out: activity in %
Method: (§1) Solvents: 78.0 parts by weight of acetone • • 1.5 parts by weight of dimethylformamide
(§2) Emulsifier: 0.5 part by weight of alkylaryl polyglycol ether
(§3) An appropriate preparation of active compound is prepared by mixing 1 part by weight of active compound with the stated amounts of solvent and emulsifier and diluting the concentrate with emulsifier-containing water to the desired concentration.
Leaf discs of maize (Zea mays) are sprayed with a preparation of active compound at the desired concentration and, after drying, are populated with caterpillars of the armyworm (Spodoptera frugiperda).
After 7 days, the activity in % is ascertained. Here, 100% means that all of the caterpillars have been killed; 0% means that no caterpillar has been killed.

[2] = log P determination by HPLC on reversed-phase columns (EEC Directive 79/831 Annex V.A8); assay type: physicochemical; settings: pH 2.7
Method: Determination by LC-MS in the acidic range takes place at a pH of 2.7 using 0.1% aqueous formic acid and acetonitrile (containing 0.1% formic acid) as eluents, with a linear gradient from 10% acetonitrile to 95% acetonitrile.
Calibration was carried out using unbranched alkan-2-ones (having 3 to 16 carbon atoms) with known log P values (the log P values are determined from the retention times by linear interpolation between two successive alkanones).

[3] = test system: larvae of the mustard beetle (Phaedon cochleariae); experiment: Phaedon test (PHAECO spray treatment); assay type: in vivo; settings: 168 h, 100 g/ha, after 7 days, read-out: activity in %
Method: as §1, §2, §3
After 7 days, the activity in % is ascertained. Here, 100% means that all of the beetle larvae have been killed; 0% means that no beetle larvae have been killed.

Structure (SMILES)	pest or weed control at 100 g/ha [1] [%]	chromatographic logP [2]	pest or weed control at 100 g/ha [3] [%]	chromatographic logP ([2]; reversed-phase C18 HPLC column, HPLC on reversed-phase columns (C 18), EEC Directive 79/831 Annex V.A8, read-out: logP)
Cc1cc(C#N)cc(C(N)=O)c1NC(=O)c1cc(Cn2cc(-c3ccc(C(F)(F)F)cc3)nn2)nn1-c1ncccc1Cl [Example 2]	100	2.81	100	
CNC(=O)c1cc(C#N)cc(C)c1NC(=O)c1cc(Cn2cc(-c3ccc(C(F)(F)F)cc3)nn2)nn1-c1ncccc1Cl [Example 3]	100	2.99	100	
Cc1cc(C#N)cc(C(=O)NC(C)C)c1NC(=O)c1cc(Cn2cc(-c3ccc(C(F)(F)F)cc3)nn2)nn1-c1ncccc1Cl [Example 4]	100		100	3.39
CNC(=O)c1cc(Cl)cc(C)c1NC(=O)c1cc(Cn2cc(-c3ccc(F)cc3)nn2)nn1-c1ncccc1Cl [Example 16]	83	2.84	100	
CNC(=O)c1cc(Cl)cc(C)c1NC(=O)c1cc(Cn2cc(-c3ccc(Cl)cc3)nn2)nn1-c1ncccc1Cl [Example 17]	100	3.57	100	
CNC(=O)c1cc(Cl)cc(C)c1NC(=O)c1cc(Cn2cc(-c3ccc(Cl)cc3Cl)nn2)nn1-c1ncccc1Cl [Example 18]	100	3.2	100	
CNC(=O)c1cc(Cl)cc(C)c1NC(=O)c1cc(Cn2cc(-c3ccccc3Cl)nn2)nn1-c1ncccc1Cl [Example 19]	100	2.74	100	
CNC(=O)c1cc(Cl)cc(C)c1NC(=O)c1cc(Cn2cc(-c3cccc(Cl)c3)nn2)nn1-c1ncccc1Cl [Example 20]	100	3.11	100	
CNC(=O)c1cc(Cl)cc(C)c1NC(=O)c1cc(Cn2ncc(-c3ccc(F)cc3)n2)nn1-c1ncccc1Cl [Example 24]	100	3.23	100	
CNC(=O)c1cc(Cl)cc(C)c1NC(=O)c1cc(Cn2ncc(-c3ccc(Cl)cc3)n2)nn1-c1ncccc1Cl [Example 25]	100	3.62	100	
CNC(=O)c1cc(Cl)cc(C)c1NC(=O)c1cc(Cn2ncc(-c3ccccc3Cl)n2)nn1-c1ncccc1Cl [Example 27]	100	3.43	100	
CNC(=O)c1cc(Cl)cc(C)c1NC(=O)c1cc(Cn2ncc(-c3cccc(Cl)c3)n2)nn1-c1ncccc1Cl [Example 28]	100	3.63	100	
CNC(=O)c1cc(C#N)cc(C)c1NC(=O)c1cc(Cn2cc(-c3ccc(Cl)cc3)nn2)nn1-c1ncccc1Cl [Example 33]	100	2.75	100	
CNC(=O)c1cc(C#N)cc(C)c1NC(=O)c1cc(Cn2cc(-c3ccc(Cl)cc3Cl)nn2)nn1-c1ncccc1Cl [Example 34]	100	3.2	100	
CNC(=O)c1cc(C#N)cc(C)c1NC(=O)c1cc(Cn2ncc(C(C)C)n2)nn1-c1ncccc1Cl [Example 38]		2.58	100	
Cc1cc(Cl)cc(C(=O)NC(C)(C)C)c1NC(=O)c1cc(Cn2ncc(C3CC3)n2)nn1-c1ncccc1Cl [Example 46]		3.6	100	
Cc1cc(I)cc(C(=O)NC2CCC2)c1NC(=O)c1cc(Cn2ncc(C(F)(F)F)n2)nn1-c1ncccc1Cl [Example 164]		3.89	100	
Cc1cc(C#N)cc(C(=O)NCC#N)c1NC(=O)c1cc(Cn2cc(C(F)(F)F)nn2)nn1-c1ncccc1Cl [Example 186]		2.32	100	
